Like-named read-outs stand apart in the source and are kept apart here.
Tests used:
F35T cells = test: Foci reduction in FECD (CAG10-Cy3 FISH, foci per nucleus); assay type: cell-based
Description: F35T cells were cultured in media containing Opti-MEM (ThermoFisher) supplemented with 8% FBS, 20 μg/mL ascorbic acid, […] CaCl2, 0.08% chondroitin sulfate, 1×Pen/Strep, 100 μg/mL bovine pituitary extract, 5 ng/mL epidermal growth factor, and 20 ng/mL nerve growth factor. Throughout the culture, cells were maintained in an incubator at 37° C. and 5% CO2. Media was refreshed every 48 hours. Once cells reached adequate confluency, they were harvested and seeded in 96 well plates with a density of 5000 cells per well in 200 μL of the supplemented Opti-MEM media. Cells were returned to the incubator and left to settle for 24 hours at 37° C. and 5% CO2. Cells were then treated in 8-point dose response with compounds or negative controls and incubated for 48 hours at 37° C. and 5% CO2. After treatment, cells were fixed with 4% PFA for 20 minutes at room temperature, followed by permeabilization with 70% ethanol. Cells were incubated at −20° C. for a minimum of 1 hour and maximum of 72 hours, after which the ethanol was removed, and cells were washed with PBS. Cells were rehydrated with 30% formamide and 2×SSC buffer for 10 minutes at room temperature. Cells were then incubated overnight at 37° C. in the hybridization solution containing 30% formamide, 2×SSC, 55 mg/mL dextran sulfate, 2.75 mg/mL bovine serum albumin, 0.2 μg/mL Herring sperm DNA, 1% vanadyl-ribonucleoside complex, and 0.05% 10 μM CAG10-Cy3 probe. Cells were washed twice with 30% formamide in 2×SSC, incubating the cells while shaking with the second wash at 37° C. and 200 rpm for 60 minutes. Cells were stained with 5 mg/mL DAPI 1:1000 in PBS, incubating at room temperature for 5 minutes. Cells were then washed with PBS and sealed with adhesive foil, with each well containing a final volume of 150 μL PBS. Cells were imaged on a Cytation 5 and analyzed on a foci per nucleus basis.

[1] = test system: Myotonic Dystrophy 1 affected patient fibroblasts (Coriel GM04602; 1600 CTG repeats); test: DM1 foci reduction assay (EC50 assay; CAG10-Cy3 FISH, foci per nucleus); assay type: cell-based; conditions: Homo sapiens, Fibroblast
Procedure, shortened: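 GM04602 DM1 patient fibroblasts (1600 CTG repeats) seeded 24 h, then treated 48 h at 37 °C with an 8-point 1:3 dose series from 3 μM. Cells PFA-fixed, ethanol-permeabilized and hybridized overnight with 5 nM CAG10-Cy3 probe, DAPI counterstained. Imaged at 20×, 4 fields per well, as average foci per nucleus.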

[2] = F35T cells, 48 h treatment, foci per nucleus, read-out: FECD EC50, 48 h
[3] = DM1 patient fibroblasts, 48 h treatment, foci per nucleus, read-out: DM1 EC50, 48 h
[4] = F35T cells, foci per nucleus, 48 h treatment, read-out: FECD EC50, 48 h
[5] = DM1 patient fibroblasts, foci per nucleus, 48 h treatment, read-out: DM1 EC50, 48 h

SMILES: COCCOCCOCCOCCN(CCOCCOCCOCCOC)C(=O)CCNC(=O)c1nc(NC(=O)c2cc(NC(=O)CCNC(=O)c3nc(NC(=O)CCCNC(=O)c4cc(NC(=O)c5nc(NC(=O)CCNC(=O)c6cc(NC(C)c7nccn7C)cn6C)cn5C)cn4C)cn3C)cn2C)cn1C (stereo not shown) [Compound B-79]
- EC50 (F35T cells; [2]): > 1000 nM
- EC50 [1, 3]: 100 to 500 nM

SMILES: CCNC(=O)c1nc(NC(=O)c2cc(NC(=O)CCNC(=O)c3nc(NC(=O)CCCNC(=O)c4cc(NC(=O)c5nc(NC(=O)CCNC(=O)c6cc(NC(=O)c7nccn7C)cn6C)cn5C)cn4C)cn3C)cn2C)cn1C [Compound B-312]
- EC50 (F35T cells; [2]): < 100 nM
- EC50 [1, 3]: < 100 nM

SMILES: CCCNC(=O)CCNC(=O)c1cc(NC(=O)c2nc(NC(=O)CCNC(=O)c3cc(NC(=O)c4nc(NC(=O)CCCNC(=O)c5cc(NC(=O)c6nc(NC(=O)CCNC(=O)c7cc(NC(=O)c8nccn8C)cn7C)cn6C)cn5C)cn4C)cn3C)cn2C)cn1C [Compound B-10]
- EC50 (F35T cells; [2]): < 100 nM
- EC50 [1, 3]: > 1000 nM

SMILES: COC(=O)c1cccc(NCCCCNC(=O)c2nc(NC(=O)c3cc(NC(=O)CCNC(=O)c4nc(NC(=O)CCCNC(=O)c5cc(NC(=O)c6nc(NC(=O)CCNC(=O)c7cc(NC(=O)c8nccn8C)cn7C)cn6C)cn5C)cn4C)cn3C)cn2C)c1 [Compound B-343]
- EC50 (F35T cells; [2]): < 100 nM
- EC50 [1, 3]: < 100 nM

SMILES: COCCOCCOCCOCCOCCOCCOc1ccc(C#CCNCCCNC(=O)c2nc(NC(=O)c3cc(NC(=O)CCNC(=O)c4nc(NC(=O)CCCNC(=O)c5cc(NC(=O)c6nc(NC(=O)CCNC(=O)c7cc(NC(=O)c8nccn8C)cn7C)cn6C)cn5C)cn4C)cn3C)cn2C)cc1 [Compound B-412]
- EC50 (F35T cells; [4]): < 100 nM
- EC50 [1, 5]: > 1000 nM

SMILES: CCCNC(=O)CCNC(=O)c1nc(NC(=O)CCNC(=O)c2cc(NC(=O)c3nc(NC(=O)CCCNC(=O)c4cc(NC(=O)c5nc(NC(=O)CCNC(=O)c6cc(NC(C)c7nccn7C)cn6C)cn5C)cn4C)cn3C)cn2C)cn1C (stereo not shown) [Compound B-74]
- EC50 (F35T cells; [2]): 500 to 1000 nM
- EC50 [1, 3]: > 1000 nM

SMILES: COCCOCCOCCOCCN(CCOCCOCCOCCOC)C(=O)CCCCn1cc(NC(=O)c2nc(NC(=O)CCNC(=O)c3cc(NC(=O)c4nccn4C)cn3C)cn2C)cc1C(=O)NCCCC(=O)Nc1cn(C)c(C(=O)NCCC(=O)Nc2cc(C(=O)Nc3cn(C)c(C(=O)NCCC(=O)NCCOCCOCCOCCN4CCC(C#CC#CC5CCN(C(=O)OC(C)(C)C)CC5)CC4)n3)n(C)c2)n1 [Compound B-228]
- EC50 (F35T cells; [2]): 100 to 500 nM
- EC50 [1, 3]: 100 to 500 nM

SMILES: COCCOCCOCCOCCN(CCCCCn1cc(NC(=O)c2nc(NC(=O)CCNC(=O)c3cc(NC(=O)c4nccn4C)cn3C)cn2C)cc1C(=O)NCCCC(=O)Nc1cn(C)c(C(=O)NCCC(=O)Nc2cc(C(=O)Nc3cn(C)c(C(=O)NCCC(=O)NCCOCCOCCOCCN4CCC(C#CC#CC5CCN(C(=O)OC(C)(C)C)CC5)CC4)n3)n(C)c2)n1)CCOCCOCCOCCOC [Compound B-226]
- EC50 (F35T cells; [2]): 100 to 500 nM
- EC50 [1, 3]: 100 to 500 nM

SMILES: Cn1cc(NC(=O)c2nc(NC(=O)CCNC(=O)c3cc(NC(=O)c4nccn4C)cn3C)cn2C)cc1C(=O)NCCCC(=O)Nc1cn(C)c(C(=O)NCCC(=O)Nc2cc(C(=O)Nc3cn(C)c(C(=O)NCCC(=O)NC(CO)COP(=O)(O)Oc4ccccc4Cl)n3)n(C)c2)n1 (stereo not shown) [Compound B-394]
- EC50 (F35T cells; 48 h, read-out: FECD EC50, 48 h (nM)): 500 to 1000 nM
- EC50 ([1]; 48 h, read-out: DM1 EC50, 48 h (nM)): 100 to 500 nM

SMILES: CN(C)CCCNC(=O)CCNC(=O)c1nc(NC(=O)c2cc(NC(=O)CCNC(=O)c3nc(NC(=O)CCCNC(=O)c4cc(NC(=O)c5nc(NC(=O)CCNC(=O)c6cc(NC(=O)c7nccn7C)cn6C)cn5C)cn4C)cn3C)cn2C)cn1C [Compound B-33]
- EC50 (F35T cells; [2]): 100 to 500 nM
- EC50 [1, 3]: 100 to 500 nM

SMILES: CCCNC(=O)CCNC(=O)c1nc(NC(=O)c2cc(NC(=O)CCNC(=O)c3nc(NC(=O)CCCNC(=O)c4cc(NC(=O)c5nc(NC(=O)CCNC(=O)c6cc(NC(=O)c7nccn7C)cn6C)cn5C)cn4CC)cn3C)cn2C)cn1C [Compound B-318]
- EC50 (F35T cells; [2]): < 100 nM
- EC50 [1, 3]: 100 to 500 nM

SMILES: Cn1cc(NC(=O)c2nc(NC(=O)CCNC(=O)c3cc(NC(=O)c4nccn4C)cn3C)cn2C)cc1C(=O)NCCCC(=O)Nc1cn(C)c(C(=O)NCCC(=O)Nc2cc(C(=O)Nc3cn(C)c(C(=O)NCCCNC(CO)CO)n3)n(C)c2)n1 [Compound B-335]
- EC50 (F35T cells; [2]): 100 to 500 nM
- EC50 [1, 3]: 100 to 500 nM

SMILES: Cn1cc(NC(=O)c2nc(NC(=O)CCNC(=O)c3cc(NC(=O)c4nccn4C)cn3C)cn2C)cc1C(=O)NCCCC(=O)Nc1cn(C)c(C(=O)NCCC(=O)Nc2cc(C(=O)Nc3cn(C)c(C(=O)NCCC(=O)N4CCC(C#CC#CC5CCNCC5)CC4)n3)n(C)c2)n1 [Compound B-126, 1-Methyl-4-(3-{[1-methyl-4-(1-methylimidazole-2-amido)pyrrol-2-yl]formamido}propanamido)-N-(1-methyl-5-{[3-({1-methyl-2-[(2-{[1-methyl-5-({1-methyl-2-[(3-oxo-3-{4-[4-(piperidin-4-yl)buta-1,3-diyn-1-yl]piperidin-1-yl}propyl)carbamoyl]imidazol-4-yl}carbamoyl)pyrrol-3-yl]carbamoyl}ethyl)carbamoyl]imidazol-4-yl}carbamoyl)propyl]carbamoyl}pyrrol-3-yl)imidazole-2-carboxamide]
- EC50 (F35T cells; [2]): < 100 nM
- EC50 [1, 3]: < 100 nM

SMILES: Cn1cc(NC(=O)c2nccn2C)cc1C(=O)NCCC(=O)Nc1cn(C)c(C(=O)Nc2cc(C(=O)NC[C@H](N)CC(=O)Nc3cn(C)c(C(=O)NCCC(=O)Nc4cc(C(=O)Nc5cn(C)c(C(=O)NCCC(=O)N6CCCCC6)n5)n(C)c4)n3)n(C)c2)n1 [Compound B-418]
- EC50 (F35T cells; [4]): < 100 nM
- EC50 [1, 5]: 100 to 500 nM

SMILES: CCCNC(=O)CCNC(=O)c1nc(NC(=O)c2cc(NC(=O)CCNC(=O)c3nc(NC(=O)CCCNC(=O)c4cc(NC(=O)c5nc(NC(=O)CCNC(=O)c6cc(NC(=O)c7nccn7C)cn6C)cn5C)cn4CCC)cn3C)cn2C)cn1C [Compound B-320]
- EC50 (F35T cells; [2]): < 100 nM
- EC50 [1, 3]: < 100 nM

SMILES: CC(C)CCNC(=O)CCNC(=O)c1nc(NC(=O)c2cc(NC(=O)CCNC(=O)c3nc(NC(=O)CCCNC(=O)c4cc(NC(=O)c5nc(NC(=O)CCNC(=O)c6cc(NC(=O)c7nccn7C)cn6C)cn5C)cn4C)cn3C)cn2C)cn1C [Compound B-179]
- EC50 (F35T cells; [2]): < 100 nM
- EC50 [1, 3]: 100 to 500 nM

SMILES: CC(=O)NCCOCCOCCOCCOCCOCCOCCOCCOCCOCCOCCNC(=O)CCNC(=O)c1nc(NC(=O)c2cc(NC(=O)CCNC(=O)c3nc(NC(=O)CCCNC(=O)c4cc(NC(=O)c5nc(NC(=O)CCNC(=O)c6cc(NC(C)c7nccn7C)cn6C)cn5C)cn4C)cn3C)cn2C)cn1C (stereo not shown) [Compound B-82]
- EC50 (F35T cells; [2]): 100 to 500 nM
- EC50 [1, 3]: 100 to 500 nM

SMILES: CCCNC(=O)c1nc(NC(=O)c2cc(NC(=O)CCNC(=O)c3nc(NC(=O)[C@H](N)CCNC(=O)c4cc(NC(=O)c5nc(NC(=O)CCNC(=O)c6cc(NC(=O)c7nccn7C)cn6C)cn5C)cn4C)cn3C)cn2C)cn1C [Compound B-409]
- EC50 (F35T cells; [2]): < 100 nM
- EC50 [1, 3]: < 100 nM

SMILES: CC(=O)N1CCC(C#CC#CC2CCN(C(=O)CCNC(=O)c3nc(NC(=O)c4cc(NC(=O)CCNC(=O)c5nc(NC(=O)CCCNC(=O)c6cc(NC(=O)c7nc(NC(=O)CCNC(=O)c8cc(NC(=O)c9nccn9C)cn8C)cn7C)cn6CCCCN)cn5C)cn4C)cn3C)CC2)CC1 [Compound B-280]
- EC50 (F35T cells; [2]): < 100 nM
- EC50 [1, 3]: < 100 nM

SMILES: Cn1cc(NC(=O)c2nc(NC(=O)CCNC(=O)c3cc(NC(=O)c4nccn4C)cn3C)cn2C)cc1C(=O)NCCCC(=O)Nc1cn(C)c(C(=O)NCCC(=O)Nc2cc(C(=O)Nc3cn(C)c(C(=O)NCCC(=O)NCC#CC#Cc4ccc(N)cc4)n3)n(C)c2)n1 [Compound B-132]
- EC50 (F35T cells; [2]): < 100 nM
- EC50 [1, 3]: < 100 nM

SMILES: Cn1cc(NC(=O)c2nccn2C)cc1C(=O)NCCC(=O)Nc1cn(C)c(C(=O)Nc2cc(C(=O)NCCCC(=O)Nc3cn(C)c(C(=O)NCCC(=O)Nc4cc(C(=O)Nc5cn(C)c(C(=O)NCCC(=O)N6CCC(C#CC#CC7CCNCC7)CC6)n5)n(C)c4)n3)n(CCCCCCN)c2)n1 [Compound B-256]
- EC50 (F35T cells; [2]): 100 to 500 nM
- EC50 [1, 3]: 100 to 500 nM

SMILES: Cn1cc(NC(=O)c2nc(NC(=O)CCNC(=O)c3cc(NC(=O)c4nccn4C)cn3C)cn2C)cc1C(=O)NCCCC(=O)Nc1cn(C)c(C(=O)NCCC(=O)Nc2cc(C(=O)Nc3cn(C)c(C(=O)NCCC(=O)N4CCC(C#CC#CC5CCCCC5)CC4)n3)n(C)c2)n1 [Compound B-385]
- EC50 (F35T cells; [2]): 100 to 500 nM
- EC50 [1, 3]: > 1000 nM

SMILES: COCCOCCOCCOCCN(CCCCCn1cc(NC(=O)c2nc(NC(=O)CCNC(=O)c3cc(NC(=O)c4nccn4C)cn3C)cn2C)cc1C(=O)NCCCC(=O)Nc1cn(C)c(C(=O)NCCC(=O)Nc2cc(C(=O)Nc3cn(C)c(C(=O)NCCC(=O)N4CCC(C#CC#CC5CCN(C(C)=O)CC5)CC4)n3)n(C)c2)n1)CCOCCOCCOCCOC [Compound B-257]
- EC50 (F35T cells; [2]): 100 to 500 nM
- EC50 [1, 3]: 100 to 500 nM

Reference: patent publication US20250368628A1, “METHODS AND COMPOUNDS FOR MODULATING INHERITED GENETIC DISEASES” (Design Therapeutics, Inc., priority 2022, published 2025)
